# Experimental data taken from ChEMBL document CHEMBL1201862, “PubChem BioAssay data set” (2004).
#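 Five compound concentrations were applied to cells in 96-well plates for 48 hours; endpoints were derived by simple linear interpolation of the resulting dose-response curve. The concentration for 50% growth inhibition is given as GI50.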 The source made the active and inactive calls. Cut-off read from the data, not from the text of the source: active = GI50 up to about 1.1 µM and inactive = higher.
# Columns and labels:
# Assay in all cases: growth of human tumour cells (NCI), 48 h
# LOX IMVI = tested on: LOX IMVI
# SNB-19 = tested on: SNB-19
# SW-620 = tested on: SW-620
# NCI-H226 = tested on: NCI-H226
# PC-3 = tested on: PC-3
# HT-29 = tested on: HT-29
# MCF7 = tested on: MCF7
# MDA-N = tested on: MDA-N
# T47D = tested on: T47D
# SK-MEL-2 = tested on: SK-MEL-2
# SF-295 = tested on: SF-295
# OVCAR-8 = tested on: OVCAR-8
# U-251 = tested on: U-251
# RXF 393 = tested on: RXF 393
# A498 = tested on: A498
# MDA-MB-435 = tested on: MDA-MB-435
# OVCAR-3 = tested on: OVCAR-3
Structure (SMILES),GI50 (LOX IMVI),GI50 (SNB-19),GI50 (SW-620),GI50 (NCI-H226),GI50 (PC-3),GI50 (HT-29),GI50 (MCF7),GI50 (MDA-N),GI50 (T47D),GI50 (SK-MEL-2),GI50 (SF-295),GI50 (OVCAR-8),GI50 (U-251),GI50 (RXF 393),GI50 (A498),GI50 (MDA-MB-435),GI50 (OVCAR-3)
C/C=C/[C@@]1(OC(=O)c2ccccc2)C[C@@H]2CCCC[C@@H]21,21.9 µM (inactive),17.3 µM (inactive),23 µM (inactive),16.5 µM (inactive),20 µM (inactive),16.3 µM (inactive),18.9 µM (inactive),17.4 µM (inactive),18.6 µM (inactive),13.2 µM (inactive),18.6 µM (inactive),18.5 µM (inactive),16.3 µM (inactive),–,–,–,–
O=c1ccc(=O)c2c1c1[nH]c3ccccc3c1c1c(=O)c3ccccc3c(=O)c21,> 10 µM (inactive),> 10 µM (inactive),8.22 µM (inactive),> 10 µM (inactive),> 10 µM (inactive),> 10 µM (inactive),–,–,> 10 µM (inactive),> 10 µM (inactive),> 10 µM (inactive),> 10 µM (inactive),> 10 µM (inactive),> 10 µM (inactive),> 10 µM (inactive),> 10 µM (inactive),> 10 µM (inactive)
NNc1ncnc2cccc(Cl)c12,–,> 100 µM (inactive),> 100 µM (inactive),> 100 µM (inactive),> 100 µM (inactive),> 100 µM (inactive),> 100 µM (inactive),> 100 µM (inactive),> 100 µM (inactive),–,> 100 µM (inactive),> 100 µM (inactive),> 100 µM (inactive),> 100 µM (inactive),> 100 µM (inactive),–,> 100 µM (inactive)
Cn1cccc1-c1ccc(-c2ccc(CO)[se]2)[se]1,19.1 µM (inactive),17.8 µM (inactive),2.15 µM (inactive),0.307 µM (active),24.5 µM (inactive),12.6 µM (inactive),0.906 µM (active),8.53 µM (inactive),–,28.8 µM (inactive),10.7 µM (inactive),27.7 µM (inactive),9.53 µM (inactive),5.66 µM (inactive),1.77 µM (inactive),4.91 µM (inactive),4.02 µM (inactive)
CC[C@]12C=CCN3CCC4(c5cc(/N=N/c6ccccc6)c(OC)cc5N(C)[C@H]4[C@@](O)(C(=O)OC)[C@@H]1OC(C)=O)[C@@H]32 (stereo not given in full),17.3 µM (inactive),20.5 µM (inactive),23.1 µM (inactive),24 µM (inactive),14.7 µM (inactive),16.3 µM (inactive),16.3 µM (inactive),18.4 µM (inactive),–,17.1 µM (inactive),15.6 µM (inactive),19.5 µM (inactive),15.9 µM (inactive),15.2 µM (inactive),16.6 µM (inactive),18.8 µM (inactive),12.8 µM (inactive)
Cc1ccc2[nH]c3c(c2c1)CCC/C3=N/N=C(N)N,1.84 µM (inactive),1.99 µM (inactive),3.2 µM (inactive),2.11 µM (inactive),2.64 µM (inactive),1.64 µM (inactive),1.44 µM (inactive),1.49 µM (inactive),–,1.69 µM (inactive),1.65 µM (inactive),1.91 µM (inactive),2.1 µM (inactive),2.15 µM (inactive),7.14 µM (inactive),1.72 µM (inactive),2.64 µM (inactive)
Nc1nc(N)c2cc(Sc3cccc(C(F)(F)F)c3)ccc2n1 [WR-159412],–,4.81 µM (inactive),–,–,–,3.62 µM (inactive),2.86 µM (inactive),0.371 µM (active),–,2.23 µM (inactive),0.656 µM (active),–,0.771 µM (active),–,–,0.662 µM (active),3.87 µM (inactive)
CCN(CC)CCC(=O)/C=C/c1ccccc1,2.54 µM (inactive),18.1 µM (inactive),5.89 µM (inactive),19.4 µM (inactive),12.8 µM (inactive),5.05 µM (inactive),2.48 µM (inactive),13.3 µM (inactive),–,23.3 µM (inactive),18.8 µM (inactive),19 µM (inactive),12 µM (inactive),9.25 µM (inactive),17.8 µM (inactive),11 µM (inactive),3.54 µM (inactive)
NS(=O)(=O)c1nnc(NSc2ccc([N+](=O)[O-])cc2)s1,> 100 µM (inactive),> 100 µM (inactive),> 100 µM (inactive),> 100 µM (inactive),–,–,> 100 µM (inactive),> 100 µM (inactive),> 100 µM (inactive),> 100 µM (inactive),> 100 µM (inactive),> 100 µM (inactive),> 100 µM (inactive),> 100 µM (inactive),> 100 µM (inactive),> 100 µM (inactive),> 100 µM (inactive)
